Results published in US10538555B2, “Macrocyclic inhibitors of the PD-1/PD-L1 and CD80(B7-1)/PD-L1 protein/protein interactions” (BRISTOL-MYERS SQUIBB COMPANY, priority 2014, dated 2020).
Where a SMILES comes first, the peptide text is derived from it. Bridges are numbered along the chain shown (N, C = ends). [ ]: non-standard residue; d: D form. ξ: configuration not given here. Phe(3,4,5-F3) = N[C@@H](Cc1cc(F)c(F)c(F)c1)C(=O)O; NMePhe(4-F) = CN[C@@H](Cc1ccc(F)cc1)C(=O)O; Phe(4-CN) = N#Cc1ccc(C[C@H](N)C(=O)O)cc1; d(cisHyp) = O=C(O)[C@H]1C[C@@H](O)CN1; Hyp = O=C(O)[C@@H]1C[C@@H](O)CN1; NMeF = CN[C@@H](Cc1ccccc1)C(=O)O; dHyp = O=C(O)[C@H]1C[C@H](O)CN1; NMeNle = CCCC[C@H](NC)C(=O)O; dPip = O=C(O)[C@H]1CCCCN1; hSer = N[C@@H](CCO)C(=O)O; NMeA = CN[C@@H](C)C(=O)O; Orn = NCCC[C@H](N)C(=O)O; Dab = NCC[C@H](N)C(=O)O; Abu = CC[C@H](N)C(=O)O; Dap = NC[C@H](N)C(=O)O; ξC = NC(CS)C(=O)O; Sar = CNCC(=O)O

Molecular target: T1, Human PD-L1/PD-1 (Homo sapiens, UniProt Q9NZQ7)
T1 construct: TVMV protease cleavage site (C); made in house; host or cells: HEK293T cells
T1 sequence (Q9NZQ7 with tags, fused parts or gaps): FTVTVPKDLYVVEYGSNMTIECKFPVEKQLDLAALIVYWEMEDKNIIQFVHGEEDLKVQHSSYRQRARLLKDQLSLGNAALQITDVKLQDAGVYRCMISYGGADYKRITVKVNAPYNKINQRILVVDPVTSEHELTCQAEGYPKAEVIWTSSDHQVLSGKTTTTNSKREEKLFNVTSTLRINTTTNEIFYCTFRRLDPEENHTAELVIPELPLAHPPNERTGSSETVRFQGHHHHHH
Assay: HTRF Human PD-L1/PD-1 binding assay (PD-1-Ig/PD-L1-His)
Conditions: PD-L1-His 10 nM, PD-1-Ig 20 nM; class symbol; read-out: HTRF Human PD-L1/PD-1 Binding Assay IC50 Range
Method in brief: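 HTRF read-out (665/620 nm ratio) after 30 min equilibration with Eu-cryptate anti-Ig mAb (1 nM) and APC anti-His mAb (20 nM). Peptides preincubated 15 min with PD-L1-His (10 nM), then PD-1-Ig (20 nM) added for 15 min.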

IC50 [nM]	SMILES
1 to 9.9	CCCC[C@H]1C(=O)N2C[C@@H](O)C[C@@H]2C(=O)N[C@@H](CC(=O)O)C(=O)N[C@@H](C(C)C)C(=O)N(C)[C@@H](Cc2ccccc2)C(=O)N[C@@H](CCC(=O)O)C(=O)N2CCCC[C@@H]2C(=O)N[C@@H](Cc2c[nH]c3ccccc23)C(=O)N[C@@H](Cc2ccc(O)cc2)C(=O)N[C@@H](CN)C(=O)N[C@H](C(=O)NCC(N)=O)CSCC(=O)N[C@@H](Cc2cc(F)c(F)c(F)c2)C(=O)N(C)[C@@H](Cc2ccc(F)cc2)C(=O)N1C [Example 10567] ({CH2CO}-[Phe(3,4,5-F3)][NMePhe(4-F)][NMeNle][dHyp]DV[NMeF]E[dPip]WY[Dap]CG-NH2; thioether N-13)
10 to 99.9	CCCC[C@H]1C(=O)N(C)[C@@H](CCCC)C(=O)N[C@@H](CCCNC(=N)N)C(=O)N[C@H](C(=O)NCC(N)=O)CSCC(=O)N[C@@H](Cc2ccc(C#N)cc2)C(=O)N(C)[C@@H](C)C(=O)N[C@@H](CC(N)=O)C(=O)N2CCC[C@H]2C(=O)N[C@@H](Cc2cnc[nH]2)C(=O)N[C@@H](CCC(=O)O)C(=O)N2C[C@H](O)C[C@H]2C(=O)N[C@@H](Cc2c[nH]c3ccccc23)C(=O)N[C@@H](CO)C(=O)N[C@@H](Cc2c[nH]c3ccccc23)C(=O)N1C [Example 7078] ({CH2CO}-[Phe(4-CN)][NMeA]NPHE[Hyp]WSW[NMeNle][NMeNle]RCG-NH2; thioether N-14)
10 to 99.9	CCCC[C@H]1C(=O)N2CCC[C@@H]2C(=O)N[C@@H](CC(=O)O)C(=O)N[C@@H](C)C(=O)N(C)[C@@H](Cc2ccccc2)C(=O)N[C@@H](Cc2ccc(O)cc2)C(=O)N2CCCC[C@@H]2C(=O)N[C@@H](Cc2c[nH]c3ccccc23)C(=O)N[C@@H](Cc2ccc(O)cc2)C(=O)N[C@@H](CC(C)C)C(=O)N[C@H](C(=O)NCC(N)=O)CSCC(=O)N[C@@H](Cc2ccccc2)C(=O)N(C)[C@@H](Cc2ccccc2)C(=O)N1C [Example 10087] ({CH2CO}-F[NMeF][NMeNle][dP]DA[NMeF]Y[dPip]WYLCG-NH2; thioether N-13)
100 to 990	CCCC[C@H]1C(=O)N2CCCC[C@@H]2C(=O)N[C@@H](CC(=O)O)C(=O)N[C@@H](C)C(=O)N(C)[C@@H](Cc2ccccc2)C(=O)N[C@@H](Cc2ccc(O)cc2)C(=O)N(C)CC(=O)N[C@@H](Cc2c[nH]c3ccccc23)C(=O)N[C@@H](Cc2ccc(O)cc2)C(=O)N[C@@H](CC(C)C)C(=O)N[C@H](C(=O)NCC(N)=O)CSCC(=O)N[C@@H](Cc2ccccc2)C(=O)N(C)[C@@H](Cc2ccccc2)C(=O)N1C [Example 10084] ({CH2CO}-F[NMeF][NMeNle][dPip]DA[NMeF]Y[Sar]WYLCG-NH2; thioether N-13)
10 to 99.9	CCCC[C@H]1C(=O)N(C)[C@@H](CCCC)C(=O)N[C@@H](CCCN)C(=O)N[C@H](C(=O)NCC(N)=O)CSCC(=O)N[C@@H](Cc2ccc(O)cc2)C(=O)N2CCNC[C@H]2C(=O)N[C@@H](CC(N)=O)C(=O)N2CCC[C@H]2C(=O)N[C@@H](Cc2c[nH]cn2)C(=O)N[C@@H](CC(C)C)C(=O)N2C[C@H](O)C[C@H]2C(=O)N[C@@H](Cc2c[nH]c3ccccc23)C(=O)N[C@@H](CO)C(=O)N[C@@H](Cc2c[nH]c3ccccc23)C(=O)N1C [Example 1535]
100 to 990	CCCC[C@H]1C(=O)N(C)CC(=O)N[C@@H](CC(=O)O)C(=O)N[C@@H](C(C)C)C(=O)N(C)[C@@H](Cc2ccccc2)C(=O)N[C@@H](Cc2ccc(O)cc2)C(=O)N(C)CC(=O)NC(C)(Cc2c[nH]c3ccccc23)C(=O)N[C@@H](Cc2ccc(O)cc2)C(=O)N[C@@H](CC(C)C)C(=O)N[C@H](C(=O)NCC(N)=O)CSCC(=O)N[C@@H](Cc2ccccc2)C(=O)N(C)[C@@H](Cc2ccccc2)C(=O)N1C (single isomer, unassigned) [Example 3640-B]
10 to 99.9	CCCC[C@H]1C(=O)N(C)[C@@H](CCCC)C(=O)N[C@@H](CCC(=O)O)C(=O)N[C@H](C(=O)NCC(N)=O)CSCC(=O)N[C@@H](Cc2ccc(OC)cc2)C(=O)N(C)[C@@H](C)C(=O)N[C@@H](CC(N)=O)C(=O)N2CCC[C@H]2C(=O)N[C@@H](CN)C(=O)N[C@@H](CCC(=O)O)C(=O)N2C[C@H](O)C[C@H]2C(=O)N[C@@H](Cc2c[nH]c3ccccc23)C(=O)N[C@@H](CC(=O)O)C(=O)N[C@@H](Cc2c[nH]c3ccccc23)C(=O)N1C [Example 7117] ({CH2CO}-Y(Me)[NMeA]NP[Dap]E[Hyp]WDW[NMeNle][NMeNle]ECG-NH2; thioether N-14)
1 to 9.9	CCCC[C@H]1C(=O)N(C)[C@@H](CCCC)C(=O)N[C@@H](CCN)C(=O)NC(C(=O)NCC(N)=O)CSCC(=O)N[C@@H](Cc2ccc(O)cc2)C(=O)N(C)[C@@H](C)C(=O)N[C@@H](CC(N)=O)C(=O)N2CCC[C@H]2C(=O)N[C@@H](CC(N)=O)C(=O)N[C@@H](CC(C)C)C(=O)N2CCC[C@H]2C(=O)N[C@@H](Cc2c[nH]c3ccccc23)C(=O)N[C@@H](CO)C(=O)N[C@@H](Cc2c[nH]c3ccccc23)C(=O)N1C (stereo partly drawn) [Example 9162] ({CH2CO}-Y[NMeA]NPNLPWSW[NMeNle][NMeNle][Dab][ξC]G-NH2; thioether N-14)
1 to 9.9	CCCC[C@H]1C(=O)N2C[C@H](O)C[C@@H]2C(=O)N[C@@H](CC(=O)O)C(=O)N[C@@H](C(C)C)C(=O)N(C)[C@@H](Cc2ccccc2)C(=O)N[C@@H](Cc2ccc(O)cc2)C(=O)N2C[C@H](O)C[C@@H]2C(=O)N[C@@H](Cc2c[nH]c3ccccc23)C(=O)N[C@@H](Cc2ccc(O)cc2)C(=O)N[C@@H](CC(N)=O)C(=O)N[C@H](C(=O)NCC(N)=O)CSCC(=O)N[C@@H](Cc2cc(F)c(F)c(F)c2)C(=O)N(C)[C@@H](Cc2ccccc2)C(=O)N1C [Example 9329] ({CH2CO}-[Phe(3,4,5-F3)][NMeF][NMeNle][d(cisHyp)]DV[NMeF]Y[d(cisHyp)]WYNCG-NH2; thioether N-13)
1 to 9.9	CCCC[C@H]1C(=O)N2CCC[C@@H]2C(=O)N[C@@H](CC(=O)O)C(=O)N[C@@H](C(C)C)C(=O)N(C)[C@@H](Cc2ccccc2)C(=O)N[C@@H](Cc2ccc(O)cc2)C(=O)N2C[C@H](O)C[C@@H]2C(=O)N[C@@H](Cc2c[nH]c3ccccc23)C(=O)N[C@@H](Cc2ccc(O)cc2)C(=O)N[C@@H](CCOC)C(=O)N[C@H](C(=O)NCC(N)=O)CSCC(=O)N[C@@H](Cc2cc(F)c(F)c(F)c2)C(=O)N(C)[C@@H](Cc2ccccc2)C(=O)N1C [Example 10181] ({CH2CO}-[Phe(3,4,5-F3)][NMeF][NMeNle][dP]DV[NMeF]Y[d(cisHyp)]WY[hSer](Me)CG-NH2; thioether N-13)
10 to 99.9	CCCC[C@H]1C(=O)N2CCC[C@@H]2C(=O)N[C@@H](CO)C(=O)N[C@@H](CC)C(=O)N(C)[C@@H](Cc2ccccc2)C(=O)N[C@@H](Cc2ccc(O)cc2)C(=O)N2CCCC[C@@H]2C(=O)N[C@@H](Cc2c[nH]c3ccccc23)C(=O)N[C@@H](Cc2ccc(O)cc2)C(=O)N[C@@H](CC(C)C)C(=O)N[C@H](C(=O)NCC(N)=O)CSCC(=O)N[C@@H](Cc2ccccc2)C(=O)N(C)[C@@H](Cc2ccccc2)C(=O)N1C [Example 10060] ({CH2CO}-F[NMeF][NMeNle][dP]S[Abu][NMeF]Y[dPip]WYLCG-NH2; thioether N-13)
1 to 9.9	CCCC[C@H]1C(=O)N2C[C@@H](O)C[C@@H]2C(=O)N[C@@H](CC(=O)O)C(=O)N[C@@H](C(C)C)C(=O)N(C)[C@@H](Cc2ccc(F)cc2)C(=O)N[C@@H](CCCN)C(=O)N2CCC[C@@H]2C(=O)N[C@@H](Cc2c[nH]c3ccccc23)C(=O)N[C@@H](Cc2ccc(O)cc2)C(=O)N[C@@H](CC(C)C)C(=O)N[C@H](C(=O)NCC(N)=O)CSCC(=O)N[C@@H](Cc2cc(F)c(F)c(F)c2)C(=O)N(C)[C@@H](Cc2ccccc2)C(=O)N1C [Example 10118] ({CH2CO}-[Phe(3,4,5-F3)][NMeF][NMeNle][dHyp]DV[NMePhe(4-F)][Orn][dP]WYLCG-NH2; thioether N-13)
